In US6737383B1, “Herbicidal oxadiazolidines” (priority 1999, dated 2004):

Key:
rape = test: Test B pre/postemergence rape; type: in vivo, Brassica napus
Procedure, shortened: (§1)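 Response is a visual 0-to-10 score relative to untreated plants, where 0 means no effect and 10 means complete control, taken twelve to sixteen days after application. Treatments went onto soil at planting and onto foliage of 1- to 4-leaf plants, using a surfactant-containing non-phytotoxic solvent.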

smallflower flatsedge = test: Test B flood test smallflower flatsedge; type: in vivo, Cyperus difformis
Procedure, shortened: (§2)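 Plants were grown to the 2-leaf stage before treatment with test chemical, then held in a greenhouse for twelve to sixteen days. Injury was visually rated against untreated controls on a 0–10 scale, where 0 is no effect and 10 is complete control.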

giant foxtail = test: Test B pre/postemergence giant foxtail; type: in vivo, Setaria faberii
Procedure, shortened: as §1

sugar beet = test: Test B pre/postemergence sugar beet; type: in vivo, Beta vulgaris
Procedure, shortened: as §1

surinam grass = test: Test B pre/postemergence surinam grass; type: in vivo, Brachiaria decumbens
Procedure, shortened: as §1

duck salad = test: Test B flood test duck salad; type: in vivo, Heteranthera limosa
Procedure, shortened: as §2

purple nutsedge = test: Test B pre/postemergence purple nutsedge; type: in vivo, Cyperus rotundus
Procedure, shortened: as §1

rice = test: Test B flood test rice; type: in vivo, Oryza sativa
Procedure, shortened: as §2

corn = test: Test B pre/postemergence corn; type: in vivo, Zea mays
Procedure, shortened: as §1

cocklebur = test: Test B pre/postemergence cocklebur; type: in vivo, Xanthium strumarium
Procedure, shortened: as §1

wild oat = test: Test B pre/postemergence wild oat; type: in vivo, Avena fatua
Procedure, shortened: as §1

crabgrass = test: Test B pre/postemergence crabgrass; type: in vivo, Digitaria sanguinalis
Procedure, shortened: as §1

soybean = test: Test B pre/postemergence soybean; type: in vivo, Glycine max
Procedure, shortened: as §1

morningglory = test: Test B pre/postemergence morningglory; type: in vivo, Ipomoea hederacea
Procedure, shortened: as §1

pigweed = test: Test B pre/postemergence pigweed; type: in vivo, Amaranthus retroflexus
Procedure, shortened: as §1

bamyardgrass = test: Test B flood test barnyardgrass; type: in vivo, Echinochloa crus-galli
Procedure, shortened: as §2

[1] = Preemergence, Rate 62 g/ha, scale of 0 to 10 where 0 is no effect and 10 is complete control
[2] = Preemergence, Rate 250 g/ha, scale of 0 to 10 where 0 is no effect and 10 is complete control
[3] = Preemergence, Rate 500 g/ha, scale of 0 to 10 where 0 is no effect and 10 is complete control
[4] = Rate 62 g/ha, Postemergence, scale 0 to 10 (0 no effect, 10 complete control)
[5] = Rate 125 g/ha, Postemergence, scale of 0 to 10 where 0 is no effect and 10 is complete control
[6] = Rate 250 g/ha, Postemergence, scale of 0 to 10 where 0 is no effect and 10 is complete control
[7] = Rate 62 g/ha, headed Pre-emergence (flood test species), scale 0 to 10 (0 no effect, 10 complete control)
[8] = Rate 125 g/ha, Pre-emergence, flood test species, scale 0 to 10 where 0 is no effect and 10 is complete control
[9] = Rate 250 g/ha, Pre-emergence, flood-test species, scale 0 to 10, 0 is no effect, 10 is complete control
[10] = Rate 500 g/ha, Pre-emergence, flood test species, scale 0 to 10 (0 no effect, 10 complete control)
[11] = Rate 500 g/ha, Postemergence, scale 0 to 10, 0 no effect, 10 complete control

CCc1cccc(CC)c1-n1c(=O)on(C(=O)N(c2ccc(F)cc2)C(C)C)c1=O [Compound 304]
1: Sugarbeets plant response rating (0 to 10 scale) (sugar beet; Preemergence, Rate 125 g/ha)
4: Giant foxtail plant response rating (0 to 10 scale) (giant foxtail; Preemergence, Rate 125 g/ha) | Crabgrass plant response rating (0 to 10 scale) (crabgrass; Preemergence, Rate 125 g/ha) | Soybean plant response rating (soybean; [5]) | Barnyardgrass plant response rating (bamyardgrass; [10])
3: Crabgrass plant response rating (crabgrass; [1]) | Soybean plant response rating (soybean; [4]) | Morningglory plant response rating (morningglory; [4]) | Morningglory plant response rating (morningglory; [5]) | Plant response rating, Morningglory (morningglory; [6]) | Redroot pigweed plant response rating (pigweed; [4]) | Redroot pigweed plant response rating (pigweed; [5])
0: Rape plant response rating (rape; [1]) | Rape plant response rating (0 to 10 scale) (rape; Preemergence, Rate 125 g/ha) | Rape plant response rating (rape; [2]) | Rape plant response rating (rape; [3]) | Rape plant response rating (rape; [4]) | Rape plant response rating (rape; [5]) | Plant response rating, Rape (rape; [6]) | S. Flatsedge plant response rating (smallflower flatsedge; [7]) | S. Flatsedge plant response rating (smallflower flatsedge; [8]) | S. Flatsedge plant response rating (smallflower flatsedge; [9]) | S. Flatsedge plant response rating (smallflower flatsedge; [10]) | Giant foxtail plant response rating (giant foxtail; [1]) | Giant foxtail plant response rating (giant foxtail; [4]) | Giant foxtail plant response rating (giant foxtail; [5]) | Plant response rating, Giant foxtail (giant foxtail; [6]) | Sugarbeets plant response rating (sugar beet; [1]) | Sugarbeets plant response rating (sugar beet; [4]) | Sugarbeets plant response rating (sugar beet; [5]) | Plant response rating, Sugarbeets (sugar beet; [6]) | B. signalgrass plant response rating (surinam grass; [1]) | B. signalgrass plant response rating (0 to 10 scale, 0 is no effect, 10 is complete control) (surinam grass; Preemergence, Rate 125 g/ha) | B. signalgrass plant response rating (surinam grass; [2]) | B. signalgrass plant response rating (surinam grass; [3]) | B. signalgrass plant response rating (surinam grass; [4]) | B. signalgrass plant response rating (surinam grass; [5]) | Plant response rating, B. signalgrass (surinam grass; [6]) | B. signalgrass plant response rating (surinam grass; [11]) | Ducksalad plant response rating (duck salad; [7]) | Ducksalad plant response rating (duck salad; [8]) | Ducksalad plant response rating (duck salad; [9]) | Ducksalad plant response rating (duck salad; [10]) | Nutsedge plant response rating (purple nutsedge; [1]) | Nutsedge plant response rating (0 to 10 scale) (purple nutsedge; Preemergence, Rate 125 g/ha) | Nutsedge plant response rating (purple nutsedge; [2]) | Nutsedge plant response rating (purple nutsedge; [3]) | Nutsedge plant response rating (purple nutsedge; [4]) | Nutsedge plant response rating (purple nutsedge; [5]) | Plant response rating, Nutsedge (purple nutsedge; [6]) | Rice plant response rating (rice; [7]) | Rice plant response rating (rice; [8]) | Rice plant response rating (rice; [9]) | Rice plant response rating (rice; [10]) | Corn plant response rating (corn; [1]) | Corn plant response rating (0 to 10 scale) (corn; Preemergence, Rate 125 g/ha) | Corn plant response rating (corn; [2]) | Corn plant response rating (corn; [3]) | Corn plant response rating (corn; [4]) | Corn plant response rating (corn; [5]) | Plant response rating, Corn (corn; [6]) | Corn plant response rating (corn; [11]) | Cocklebur plant response rating (0 to 10 scale) (cocklebur; Preemergence, Rate 125 g/ha) | Cocklebur plant response rating (cocklebur; [2]) | Cocklebur plant response rating (cocklebur; [3]) | Cocklebur plant response rating (cocklebur; [4]) | Cocklebur plant response rating (cocklebur; [5]) | Plant response rating, Cocklebur (cocklebur; [6]) | Cocklebur plant response rating (cocklebur; [11]) | Wild oats plant response rating (wild oat; [1]) | Wild oats plant response rating (0 to 10 scale) (wild oat; Preemergence, Rate 125 g/ha) | Wild oats plant response rating (wild oat; [2]) | Wild oats plant response rating (wild oat; [3]) | Wild oats plant response rating (wild oat; [4]) | Wild oats plant response rating (wild oat; [5]) | Plant response rating, Wild oats (wild oat; [6]) | Crabgrass plant response rating (crabgrass; [4]) | Crabgrass plant response rating (crabgrass; [5]) | Plant response rating, Crabgrass (crabgrass; [6]) | Soybean plant response rating (soybean; [1]) | Soybean plant response rating (0 to 10 scale) (soybean; Preemergence, Rate 125 g/ha) | Soybean plant response rating (soybean; [2]) | Soybean plant response rating (soybean; [3]) | Morningglory plant response rating (morningglory; [1]) | Morningglory plant response rating (0 to 10 scale) (morningglory; Preemergence, Rate 125 g/ha) | Morningglory plant response rating (morningglory; [2]) | Morningglory plant response rating (morningglory; [3]) | Redroot pigweed plant response rating (pigweed; [1]) | Redroot pigweed plant response rating (0 to 10 scale) (pigweed; Preemergence, Rate 125 g/ha) | Redroot pigweed plant response rating (pigweed; [2]) | Redroot pigweed plant response rating (pigweed; [3]) | Barnyardgrass plant response rating (bamyardgrass; [7]) | Barnyardgrass plant response rating (bamyardgrass; [8]) | Barnyardgrass plant response rating (bamyardgrass; [9])
8: Crabgrass plant response rating (crabgrass; [3])
6: Giant foxtail plant response rating (giant foxtail; [2]) | Giant foxtail plant response rating (giant foxtail; [3]) | Sugarbeets plant response rating (sugar beet; [2]) | Sugarbeets plant response rating (sugar beet; [3]) | Crabgrass plant response rating (crabgrass; [2])
5: Plant response rating, Soybean (soybean; [6]) | Plant response rating, Redroot pigweed (pigweed; [6])
